Data reported in patent US20250289800A1, “Selective Parp1 Inhibitor And Application Thereof” (Kangbaida (Sichuan) Biotechnology Co., Ltd., priority 2021, published 2025).
pIC50: −log10 of the molar value.

How the values were obtained:
[1] = test system: monolayer MDCK-MDR1 cells; assay: Bidirectional permeability evaluation with MDCK-MDR1 cell model; format: in vitro ADME; conditions: 1 μM test compound, 37° C., 2 h
Description: In this experiment, monolayer MDCK-MDR1 cells were used and incubated in a 96-well Transwell plate. A transport buffer containing 1 μM test compound was added to an appropriate administration end well on the apical or basal side, and a DMSO-containing transport buffer was added to an appropriate receiving end well. After incubation at 37° C. for 2 h, the cell plate was removed, the samples (50 μL each) were collected from the top and bottom ends and transferred to a new 96-well plate, and the protein was precipitated by subsequently adding acetonitrile. The samples were analyzed using LC-MS/MS and the concentration of the test compound was determined. The concentration data were used to calculate the apparent permeability coefficients of the transport from the apical side to the basal side and from the basal side to the apical side of the monolayer cells so as to calculate the efflux rate. The integrity of the monolayer cells was assessed by the leakage of Lucifer Yellow after 2 h of incubation.

[2] = Pharmacokinetic test in mice; format: in vivo; conditions: ICR mice, oral administration (1 mg/kg), plasma
Description: An appropriate amount of the test compound was precisely weighed and formulated into a 0.1 mg/mL solution with 30% DMSO and 30% HP-β-CD for intravenous injection, and the test compound was formulated into a 0.1 mg/mL solution with 0.5% MC for intragastric administration. Healthy adult male ICR mice were fasted overnight and then given the test compound via intravenous injection (0.5 mg/kg) and intragastric administration (1 mg/kg). Blood (anticoagulated with heparin sodium) was collected from the forelimb vein at different time points (0.083 h, 0.25 h, 0.5 h, 1 h, 2 h, 4 h, 8 h and 24 h) after administration. The blood samples were separated by centrifugation at 6800 g at 4° C. for 10 min to obtain plasma, and all the samples were stored at −80° C. for later testing. The concentration of the prototype drug in plasma was determined by an LC-MS/MS method, and the main pharmacokinetic parameters were calculated using Phoenix WinNonlin7.0.

DLD-1 BRCA2−/− cells = assay: DLD-1 BRCA2−/− cell proliferation inhibition experiment; format: cell-based; conditions: Homo sapiens, 168 h, 7 d, CellTiter-Glo
Description: 3.1 DLD-1 BRCA2^−/− Cell Proliferation Inhibition Experiment Epithelial cell line DLD-1 BRCA2^−/− from human colorectal adenocarcinoma (Horizon Discovery Ltd., Cat No.: HD105-007) was cultured in an RPMI-1640 medium containing 10% FBS, 1% penicillin-streptomycin solution, 1% L-G and 0.1 mg/mL hygromycin at 37° C. and 5% CO2. By means of cell counting, 1000 DLD-1 BRCA2^−/− cells were seeded into each well of a 96-well plate and cultured overnight. Test compounds (2-fold gradient dilution, starting at the highest dose: 10 μM, a total of 9 gradient concentrations) were added the next day. Moreover, blank control wells containing DMSO at the same concentration were set. The cells were cultured at 37° C. and 5% CO2 for 7 d, CellTiter-Glo® Reagent was then added, and the chemiluminescence values were determined using a microplate reader. The IC50 value was calculated using GraphPad Prism 8 software.

MDA-MB-436 cells = assay: MDA-MB-436 cell proliferation inhibition experiment; format: cell-based; conditions: Homo sapiens, 168 h, 7 d, Celltiter Glo
Description: Human breast cancer cell line MDA-MB-436 (supplier: ATCC, Cat #HTB-130) was cultured in an L15 medium containing 10% FBS and 1% penicillin-streptomycin solution at 37° C. and 5% CO2. By means of cell counting, 400 MDA-MB-436 cells were seeded into each well of a 384-well plate and cultured overnight. […] Moreover, blank control wells containing 0.1% DMSO were set. The cells were cultured at 37° C. and 5% CO2 for 7 d, a Celltiter Glo assay kit detection solution was then added, and the chemiluminescence values were determined using a microplate reader. The IC50 value was calculated using GraphPad Prism 8 software.

SMILES	pIC50 (DLD-1 BRCA2−/− cells)	pIC50 (MDA-MB-436 cells)	also measured
CCc1cc2ncc(CN3CCN(c4ccc(C(=O)NC)nc4)CC3)cc2[nH]c1=O [Comparative example 1]			MDCK-MDRII Papp (A-B) (10−6, cm/s) ([1]; apical to basal): 3.38 10−6, cm/s; MDCK-MDRII Papp (B-A) (10−6, cm/s) ([1]; basal to apical): 43.78 10−6, cm/s; AUC0-t [2]: 47560 ng·h/mL; Cmax [2]: 5410 ng/mL; T1/2 [2]: 6.25 h
CCc1cc2ncc(CN3CCN(c4ccc(C#N)cc4F)CC3)cc2[nH]c1=O [Compound 1, 4-(4-((7-ethyl-6-oxo-5,6-dihydro-1,5-naphthyridin-3-yl)methyl)piperazin-1-yl)-3-fluorobenzonitrile]	8.77	7.91	
CCc1cc2ncc(CN3CCN(c4ccc(F)cn4)CC3)cc2[nH]c1=O [Compound 3, 3-ethyl-7-((4-(5-fluoropyridin-2-yl)piperazin-1-yl)methyl)-1,5-naphthyridin-2(1H)-one]	8.48	7.95	
CCc1cc2ncc(CN3CCN(c4ccc(C#N)nc4)CC3)cc2[nH]c1=O [Compound 4, 5-(4-((7-ethyl-6-oxo-5,6-dihydro-1,5-naphthyridin-3-yl)methyl)piperazin-1-yl)picolinonitrile]	8.27		
CCc1cc2ncc(CN3CCN(c4ccc(Cl)cn4)CC3)cc2[nH]c1=O [Compound 10, 7-((4-(5-chloropyridin-2-yl)piperazin-1-yl)methyl)-3-ethyl-1,5-naphthyridin-2(1H)-one]		7.92	
CCc1cc2ncc(CN3CCN(c4ccc(-c5cnn(C)c5)cn4)CC3)cc2[nH]c1=O [Compound 21, 3-ethyl-7-((4-(5-(1-methyl-1H-pyrazol-4-yl)pyridin-2-yl)piperazin-1-yl)methyl)-1,5-naphthyridin-2(1H)-one]		7.56	
CCc1cc2ncc(CN3CCN(c4ccc(C(F)F)cn4)CC3)cc2[nH]c1=O [Compound 24, 7-((4-(5-(difluoromethyl)pyridin-2-yl)piperazin-1-yl)methyl)-3-ethyl-1,5-naphthyridin-2(1H)-one]		8.08	
